Patent US12146183B2, “Compound and a method for identifying a protein using said compound” (CITY UNIVERSITY OF HONG KONG, priority 2020, dated 2024)
Where a SMILES comes first, the peptide text is derived from it. The star is where a group is joined. ξ: configuration not given here. Lipoyl(6ξ) = O=C(CCCCC1CCSS1)*

molecular target: T1, Sirt2 (Homo sapiens, UniProt Q8IXJ6); test: HPLC delipoylation assay of lipoylated peptides with Sirt2; type: biochemical; settings: Sirt2 + NAD+, 37° C., monitored at 280 nm after 40 min
T1 construct: made in house
T1 sequence (Q8IXJ6 1-389): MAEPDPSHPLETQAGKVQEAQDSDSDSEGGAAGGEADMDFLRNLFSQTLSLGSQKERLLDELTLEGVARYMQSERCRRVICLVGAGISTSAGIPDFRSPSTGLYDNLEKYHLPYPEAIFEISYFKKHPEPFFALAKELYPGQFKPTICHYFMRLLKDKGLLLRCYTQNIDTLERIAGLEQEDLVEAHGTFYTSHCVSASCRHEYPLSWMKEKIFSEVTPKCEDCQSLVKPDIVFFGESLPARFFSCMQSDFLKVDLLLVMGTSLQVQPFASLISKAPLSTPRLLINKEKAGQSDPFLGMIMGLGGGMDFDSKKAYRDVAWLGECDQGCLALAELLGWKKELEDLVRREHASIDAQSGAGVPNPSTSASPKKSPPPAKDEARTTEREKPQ
Protocol: A total of 11 lipoylated peptides (KAlip-1 to KAlip-11) were synthesised. The peptide sequences were selected from proteins that have been reported as being lipoylated (PDH, KDH, BCKDH, and GCV) and non-lipoylated proteins (e.g., histone). The peptides were synthesized with a standard Fmoc solid phase synthesis approach and characterized by LC-MS. The delipoylation activity was then determined by an HPLC assay. Compared with non-putative peptides, putative lipoylated peptides appeared to be more efficiently hydrolyzed by Sirt2. For example, the delipoylated product of KAlip-1 (derived from histone) after 40 min was determined to be 59%, which is less than that of putative lipoylated substrates such as KAlip-5 and KAlip-6 (derived from PDH).
The lipoylated peptides KAlip-1 to -11 were incubated with sirtuin and cofactor NAD+ at 37° C. in 20 mM HEPES buffer (pH 8.0) containing 150 mM NaCl, 1 mM MgCl2, and 2.7 mM KCl. The reaction volume was set to 50 μL. At each specific reaction time point, the reaction mixtures were quenched by adding 250 μL of methanol. The reactions were vortexed and centrifuged. Supernatant was collected and then analysed by reverse phase HPLC. The new peak generated was collected for ESI-MS or MALDI-TOF-MS analysis directly.

Compound | Delipoylation product (HPLC yield of delipoylated product) [%]
CC[C@H](C)[C@H](NC(=O)[C@@H](NC(=O)[C@H](C)NC(=O)[C@H](CCCCNC(=O)CCCCC1CCSS1)NC(=O)[C@H](CC(=O)O)NC(=O)[C@@H](NC(=O)[C@H](CCC(=O)O)NC(=O)[C@@H](NC(=O)[C@@H](N)CCC(=O)O)[C@@H](C)CC)[C@@H](C)O)[C@@H](C)O)C(=O)NCC(=O)N[C@@H](Cc1c[nH]c2ccccc12)C(=O)N[C@@H](Cc1c[nH]c2ccccc12)C(=O)O (stereo partly shown) [KAlip-5, EIETDK(lip)ATIGWW] (H-EIETDK(Lipoyl(6ξ))ATIGWW-OH) | 100
CC(C)[C@H](N)C(=O)N[C@@H](CCC(N)=O)C(=O)N[C@@H](CO)C(=O)N[C@@H](CC(=O)O)C(=O)N[C@@H](CCCCNC(=O)CCCCC1CCSS1)C(=O)N[C@@H](C)C(=O)N[C@@H](CO)C(=O)N[C@H](C(=O)N[C@H](C(=O)N[C@@H](Cc1c[nH]c2ccccc12)C(=O)N[C@@H](Cc1c[nH]c2ccccc12)C(=O)O)[C@@H](C)O)C(C)C (stereo partly shown) [KAlip-8, VQSD K(lip)ASVTWW] (H-VQSDK(Lipoyl(6ξ))ASVTWW-OH) | 100
EIETDK(lip)AVVTWW [KAlip-6] | 100
SDPIIK(lip)GSGTWW [KAlip-3] | 98
SGASEK(lip)DIVHSGWW [KAlip-4] | 100
VKSK(lip)ATNL WW [KAlip-2] | 97

Other lines, results leading:

Delipoylation product (HPLC yield of delipoylated product) [%] | Compound
59 | C[C@H](NC(=O)[C@@H](NC(=O)[C@H](CCC(N)=O)NC(=O)[C@@H](N)CCCCN)[C@@H](C)O)C(=O)N[C@@H](CCCNC(=N)N)C(=O)N[C@@H](CCCCNC(=O)CCCCC1CCSS1)C(=O)N[C@@H](CO)C(=O)N[C@H](C(=O)NCC(=O)NCC(=O)N[C@@H](Cc1c[nH]c2ccccc12)C(=O)N[C@@H](Cc1c[nH]c2ccccc12)C(=O)O)[C@@H](C)O (stereo partly shown) [KAlip-1, KQTARK(lip)STGGWW] (H-KQTARK(Lipoyl(6ξ))STGGWW-OH)
94 | CSCC[C@H](NC(=O)[C@H](C)NC(=O)[C@H](CCC(=O)O)NC(=O)[C@@H](N)C(C)C)C(=O)N[C@@H](CCCCNC(=O)CCCCC1CCSS1)C(=O)N[C@@H](CC(C)C)C(=O)N[C@@H](CCSC)C(=O)N[C@@H](CC(N)=O)C(=O)N[C@@H](CCC(=O)O)C(=O)N[C@@H](Cc1c[nH]c2ccccc12)C(=O)N[C@@H](Cc1c[nH]c2ccccc12)C(=O)O (stereo partly shown) [KAlip-11, VEAMK(lip)LMNE WW] (H-VEAMK(Lipoyl(6ξ))LMNEWW-OH)
100 | EALPKK(lip) TGGPWW [KAlip-9]
65 | EIETDK(lip) TSVQWW [KAlip-7]
